Series [1] is described as follows: population pharmacokinetic analysis, monkey (CIV). It counts as in vivo. Also on record: mean clearance: unit not given here. To be noted: for mean clearance: monkeys, 14-day continuous infusion. The protocol:
(§1) An analysis was performed to derive allometric equations for Formula I pharmacokinetic parameters using Formula I plasma concentration-time data from three species, including mouse, rat, and monkey, and to estimate human pharmacokinetic parameters from those allometric equations.
(§2) Plasma concentrations of Formula I were obtained from mice, rats, and monkeys following intravenous injection or continuous infusion. Formula I pharmacokinetic parameters in mice, rats, and monkeys were estimated using population pharmacokinetic analysis, a function of the software program NONMEM™ (version 5). Typical population pharmacokinetic parameters for Formula I in humans were extrapolated from allometric equations that were derived from pharmacokinetic parameters estimated in the three animal species.
(§3) A two-compartment model with a first-order elimination from the central compartment adequately described Formula I plasma concentration-time profiles following intravenous bolus injection (30 mg/kg) in mice and rats, 7-day continuous infusion in rats (50 to 170 mg/kg/day), and 14-day continuous infusion in monkeys (5 to 30 mg/kg/day).
Application of a two-compartment model with Michaelis-Menten elimination better described the concentration data in monkeys than the linear model. Because the target concentration in humans is 2 μM, at which linear pharmacokinetics is assumed, all simulations for human plasma concentrations were performed based on a two-compartment model with linear first-order elimination.

Series [2] is described as follows: acute toxicity, 24-hour CIV administration in monkeys. In kind it is in vivo.
Series [3] can be described thus: population pharmacokinetic analysis, rat (IV + CIV). To be noted: population PK. In kind it is in vivo. As for the experimental part: as §1, §2, §3
Series [4] is described as follows: toxicity of 14-day infusion in rats. It counts as in vivo. To be noted: all treated and control groups, attributed to the vehicle. The protocol:
Sprague-Dawley rats received an intravenous continuous infusion over 14 days of Formula I at 25 mg/kg/day, 50 mg/kg/day, or 75 mg/kg/day at a rate of 2 mL/kg/h for 14 consecutive days (same formulation as in Example 7). Blood was collected from the jugular vein in tubes containing K2 EDTA from 3 rats/sex/group at the following time points: 2, 6, and 12 hours after the start of dosing on Day 1, on Day 2 at 6 hours (approximately 30 hours after the start of dosing), on Days 6 and 10 at 6 hours, and on Day 15, 1 hour prior the end of dosing, and then at 5 min, 15 min, 30 min, 1 h, and 2 h after the end of dosing.
The toxicity was due to the vehicle and was attributed to smaller size of infusion vessels, and concurrent catheter tract infection.

Series [5] can be described thus: pharmacokinetics of 14-day CIV infusion in monkeys. It counts as in vivo, Cynomolgus monkeys. To be noted: for T1/2z: calculated at the end of treatment, mean. As for the experimental part:
Cynomolgus monkeys received continuous IV infusion over 14 days of Formula I at 5 mg/kg/day, 15 mg/kg/day, or 30 mg/kg/day. The drug was infused intravenously (24 hours/day) into the femoral vein at a dose rate of 2 ml/kg/hour for 14 consecutive days. Blood samples were removed from each monkey on Days 1, 2, 6, 10, and 15 of the treatment period. Monkeys were bled by venipuncture and samples were collected into tubes containing K2EDTA. On Day 1, samples were collected at 2, 6, and 12 hours after initiation of treatment. Additional samples were collected at 30 hours after the start of infusion (Day 2). On Days 6 and 10, samples were collected at approximately 6 hours after the bag changes. At the end of the 14 days of infusion, on Day 15, samples were collected at 1 hour prior to cessation of dose administration, and at 5 min, 30 min, 1 h, 2 h, 4 h, 8 h, and 24 h following cessation of dose administration.

Series [6] in a line: population pharmacokinetic analysis, mouse (IV). As to conditions: population PK. In kind it is in vivo. The protocol:
as §1, §2, §3

For the molecule `CC(C)=CCC/C(C)=C/CC/C(C)=C/CN1C(=O)c2cccc(O)c2Nc2c(O)cc(O)cc21` [Formula I, 10-farnesyl-4,6,8-trihydroxy-dibenzodiazepin-11-one], the Ke in series [1] (Monkey (CIV), population PK) is 2.172 h⁻¹; in series [3] it was 8.651 h⁻¹; in series [6], 8.466 h⁻¹. Also, the mean clearance is given as 0.63 in series [1] (5 mg/kg/day), 0.57 in series [1] (15 mg/kg/day) and 0.23 in series [1] (30 mg/kg/day). The tolerability result in series [2] (35 mg/kg) and in series [2] (70 mg/kg) was “well tolerated” throughout. Moreover, the “findings at the site of infusion” value in series [4] was “necrotization and inflammatory lesions at the site of infusion”. In addition, the “fold increase in AUC between groups” value is recorded as 3.4 fold in series [5] (15 mg/kg/day versus 5 mg/kg/day) and 4.7 fold in series [5] (30 mg/kg/day versus 15 mg/kg/day). The T1/2z in series [5] (CIV 5 mg/kg/day) is given as 12 h; in series [5] (CIV 15 mg/kg/day) it was 8.3 h; in series [5] (CIV 30 mg/kg/day), 8.1 h. The concentration at 14 days in series [5] (cynomolgus monkey, plasma, 14-day IV continuous infusion, read-out: stable plasma concentrations above the therapeutic threshold) is more than 2000 nM.

The record behind these values is patent publication US7763604B2, “Methods for administration of a farnesyl dibenzodiazepinone” (Thallion Pharma Ceuticals, Inc., priority 2005, dated 2010).
